Read-outs that look alike come from different tables or passages of the source. Where a SMILES comes first, the peptide text is derived from it. Bridges are numbered along the chain shown (N, C = ends). [ ]: non-standard residue; d: D form. The star is where a group is joined. hPhe(3,5-F2-4-CF3) = N[C@@H](CCc1cc(F)c(C(F)(F)F)c(F)c1)C(=O)O; hPhe(3-Cl-4-CF3) = N[C@@H](CCc1ccc(C(F)(F)F)c(Cl)c1)C(=O)O; NPrPhe(4-CF3) = CCCN[C@@H](Cc1ccc(C(F)(F)F)cc1)C(=O)O; NEtPhe(4-Me) = CCN[C@@H](Cc1ccc(C)cc1)C(=O)O; NMeGly(cPent) = CN[C@H](C(=O)O)C1CCCC1; NEtPhe = CCN[C@@H](Cc1ccccc1)C(=O)O; Hyp = O=C(O)[C@@H]1C[C@@H](O)CN1; NMeD = CN[C@@H](CC(=O)O)C(=O)O; NMeL = CN[C@@H](CC(C)C)C(=O)O; Iva = CC[C@](C)(N)C(=O)O; Morpholide = C1CN(*)CCO1; NMeA = CN[C@@H](C)C(=O)O; Ac5c = NC1(C(=O)O)CCCC1; Aze = O=C(O)[C@@H]1CCN1; Sar = CNCC(=O)O
How the values were obtained:
[1] = biological target: GDP-bound KRAS wild-type protein (Homo sapiens, UniProt P01116); experiment: Binding to KRAS by surface plasmon resonance (SPR), Single Cycle Kinetics; conditions: GDP-bound KRAS wild-type protein, read-out: KRAS KD
[2] = biological target: GDP-bound NRAS wild-type protein (Homo sapiens, UniProt P01111); experiment: Binding to NRAS by surface plasmon resonance (SPR), Single Cycle Kinetics
[3] = biological target: GDP-bound HRAS wild-type protein (Homo sapiens, UniProt P01112); experiment: Binding to HRAS by surface plasmon resonance (SPR), Single Cycle Kinetics
[4] = SPR Single Cycle Kinetics, 1:1 binding model
[5] = SPR, GDP-bound NRAS wild-type protein vs GDP-bound KRAS wild-type protein
[6] = SPR, GDP-bound HRAS wild-type protein vs GDP-bound KRAS wild-type protein

Sequence of GDP-bound KRAS wild-type protein (P01116 whole entry): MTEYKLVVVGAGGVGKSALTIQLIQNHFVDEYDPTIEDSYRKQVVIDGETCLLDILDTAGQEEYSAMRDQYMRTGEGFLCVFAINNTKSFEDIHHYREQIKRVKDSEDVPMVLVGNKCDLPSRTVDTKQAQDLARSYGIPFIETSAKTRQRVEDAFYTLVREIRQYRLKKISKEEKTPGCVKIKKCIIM
Sequence of GDP-bound NRAS wild-type protein (P01111 whole entry): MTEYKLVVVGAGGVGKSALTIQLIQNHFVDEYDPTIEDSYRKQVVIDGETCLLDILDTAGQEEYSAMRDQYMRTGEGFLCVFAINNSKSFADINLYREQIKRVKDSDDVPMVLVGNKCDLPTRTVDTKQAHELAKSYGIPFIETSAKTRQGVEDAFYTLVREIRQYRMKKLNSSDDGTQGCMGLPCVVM
Sequence of GDP-bound HRAS wild-type protein (P01112 whole entry): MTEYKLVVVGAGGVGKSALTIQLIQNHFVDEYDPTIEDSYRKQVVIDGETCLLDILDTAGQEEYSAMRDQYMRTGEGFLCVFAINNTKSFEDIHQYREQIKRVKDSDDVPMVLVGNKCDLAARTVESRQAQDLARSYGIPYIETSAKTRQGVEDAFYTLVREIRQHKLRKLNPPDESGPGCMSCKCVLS

Compound	Kd [1, 4] [nM]	NRAS/KRAS (ratio of KD value with respect to NRAS to KD value with respect to KRAS) [2, 5]	HRAS/KRAS (ratio of KD value with respect to HRAS to KD value with respect to KRAS) [3, 6]	NRAS/KRAS (ratio of KD value for NRAS to KD value for KRAS) [2, 5]	HRAS/KRAS (ratio of KD value for HRAS to KD value for KRAS) [3, 6]	NRAS/KRAS (ratio of KD value with respect to GDP-bound NRAS wild-type protein to KD value with respect to KRAS) ([2]; SPR KD ratio NRAS/KRAS, class symbols)	HRAS/KRAS (ratio of KD value with respect to GDP-bound HRAS wild-type protein to KD value with respect to KRAS) ([3]; SPR KD ratio HRAS/KRAS, class symbols)	Kd ([1]; SPR, Single Cycle Kinetics) [nM]
CCCN1C(=O)CN(C)C(=O)CN(C)C(=O)[C@H]([C@@H](C)CC)NC(=O)[C@H](CC(C)C)N(C)C(=O)C[C@@H](C(=O)N(C)C)N(C)C(=O)[C@H](C2CCCC2)N(C)C(=O)[C@](C)(CC)NC(=O)[C@@H]2CCCN2C(=O)[C@H](CCc2cc(F)c(C(F)(F)F)c(F)c2)NC(=O)CN(C)C(=O)[C@@H]1Cc1ccc(C(F)(F)F)cc1 [PP0805] ([NMeL]I[Sar][Sar][NPrPhe(4-CF3)][Sar][hPhe(3,5-F2-4-CF3)]P[Iva][NMeGly(cPent)][NMeD]-NMe2; lactam N-11)	0.16	B (a compound having 3 or more and less than 10 is denoted as B)	C (A compound having a KD ratio of 0.1 or more and less than 3 is denoted as C)					
CC[C@H](C)[C@@H]1NC(=O)[C@H](CC(C)C)N(C)C(=O)C[C@@H](C(=O)N2CCOCC2)N(C)C(=O)[C@H](C2CCCC2)N(C)C(=O)C2(CCCC2)NC(=O)[C@@H]2CCCN2C(=O)[C@H](CCc2ccc(C(F)(F)F)c(Cl)c2)NC(=O)CN(C)C(=O)[C@H](Cc2ccccc2)N(CC)C(=O)[C@@H]2CCN2C(=O)[C@H](C)N(C)C1=O [PP0215] ([NMeL]I[NMeA][Aze][NEtPhe][Sar][hPhe(3-Cl-4-CF3)]P[Ac5c][NMeGly(cPent)][NMeD]-Morpholide; lactam N-11)	0.41			C (A compound having a KD ratio of 0.1 or more and less than 3 is denoted as C)	C (A compound having a KD ratio of 0.1 or more and less than 3 is denoted as C)			
CCC[C@H]1C(=O)N[C@@H]([C@@H](C)CC)C(=O)N(C)CC(=O)N(C)[C@H]2C/C=C\CCN(C2=O)[C@@H](Cc2ccc(C(F)(F)F)cc2)C(=O)N(C)CC(=O)N[C@@H](CCc2ccc3sc(C)c(C)c3c2)C(=O)N2C[C@H](OCC)C[C@H]2C(=O)NC2(CC(C)(C)C2)C(=O)N(C)[C@@H](C(CC)CC)C(=O)N(C)[C@H](C(=O)N(C)C)CC(=O)N1C [PP2900]	0.44					AA (a compound having 20 or more is denoted as AA)	A (a compound having 10 or more and less than 20 is denoted as A)	
CCO[C@@H]1C[C@H]2C(=O)NC3(CCCC3)C(=O)N(C)[C@@H](C3CCCC3)C(=O)N(C)[C@H](C(=O)N(C)C)CC(=O)N(C)[C@@H](CC)C(=O)N[C@@H]([C@@H](C)CC)C(=O)N(C)CC(=O)N(C)[C@H]3CC(C)=CCN(C3=O)[C@@H](Cc3ccc(C(F)(F)F)cc3)C(=O)N(C)CC(=O)N[C@@H](CCc3cc(F)c(C(F)(F)F)c(F)c3)C(=O)N2C1 [PP1036]				C (A compound having a KD ratio of 0.1 or more and less than 3 is denoted as C)	C (A compound having a KD ratio of 0.1 or more and less than 3 is denoted as C)			0.75
CCO[C@@H]1C[C@H]2C(=O)NC3(CCCC3)C(=O)N(C)[C@@H](C3CCCC3)C(=O)N(C)[C@H](C(=O)N3CCOCC3)CC(=O)N(C)[C@@H](CC(C)C)C(=O)N[C@@H]([C@@H](C)CC)C(=O)N(C)CC(=O)N(C)CC(=O)N(CC)[C@@H](Cc3ccc(C)cc3)C(=O)N(C)CC(=O)N[C@@H](CCc3ccc(C(F)(F)F)c(Cl)c3)C(=O)N2C1 [PP0042] ([NMeL]I[Sar][Sar][NEtPhe(4-Me)][Sar][hPhe(3-Cl-4-CF3)][Hyp](Et)[Ac5c][NMeGly(cPent)][NMeD]-Morpholide; lactam N-11)	0.12			C (A compound having a KD ratio of 0.1 or more and less than 3 is denoted as C)	C (A compound having a KD ratio of 0.1 or more and less than 3 is denoted as C)			
CCO[C@@H]1C[C@H]2C(=O)NC3(CC(C)(C)C3)C(=O)N(C)[C@@H](C(CC)CC)C(=O)N(C)[C@H](C(=O)N3CCCC3)CC(=O)N(C)[C@@H](COC)C(=O)N[C@@H]([C@@H](C)CC)C(=O)N(C)CC(=O)N(C)[C@H]3C/C=C\CCN(C3=O)[C@@H](Cc3ccc(C(F)(F)F)cc3)C(=O)N(C)CC(=O)N[C@@H](CCc3cc(F)c(C(F)(F)F)c(F)c3)C(=O)N2C1 [PP2123]				A (a compound having 10 or more and less than 20 is denoted as A)	A (a compound having 10 or more and less than 20 is denoted as A)			0.25

Source: patent publication US20240158446A1, “CYCLIC COMPOUND HAVING SELECTIVE INHIBITORY ACTION ON KRAS OVER HRAS AND NRAS” (CHUGAI SEIYAKU KABUSHIKI KAISHA, priority 2021, published 2024)
